Patent publication US20070179175A1, “Tetrahydronaphthyridine Derivative” (priority 2005, published 2007)

How the values were obtained:
[1] = biological target: T1, human histamine H3 receptor (Homo sapiens, UniProt Q9Y5N1); assay: H3 cell based functional assay (cAMP, β-lactamase reporter gene)
T1 construct: expressed in transfected cells; host or cells: HEK-293 cells expressing a CRE beta-lactamase reporter gene
Description: The compound was evaluated using a cell based functional assay measuring cAMP through β-lactamase reporter gene activity. A stable cell line was generated from HEK-293 cells expressing a CRE β-lactamase reporter gene and transfected with human histamine H3 receptor cDNA. Cells were seeded at a density of 500,000 cells/ml, and grown overnight in MEM (Invitrogen) supplemented with 1% dialysed FBS (Sigma), 2 mM glutamine (Sigma), 1 mM sodium pyruvate (Sigma), 0.1 mM non essential amino acids (Invitrogen) and 25 mM HEPES (Sigma) in poly D lysine coated 384 well plates (BD Biosciences). […] For IC50 determination, the test compound was prepared in PBS (Sigma) and DMSO (Sigma) at a dose response of 5×10^−10 to 5×10^−5 M with a final DMSO concentration in the assay of 0.5%. Cells were incubated for 15 minutes plus/minus compound and their ability to permit 10 μM forskolin-stimulated cAMP synthesis in the presence of 1 nM imetit was measured as described above.

hERG channel = biological target: T2, hERG channel (Homo sapiens, UniProt Q12809); assay: hERG patch clamp assay; type: cell-based; details: HEK293 cells stably expressing hERG; whole-cell patch clamp, 26.5-28.5° C.
T2 construct: expressed in transfected cells
Description: To determine the potential of compounds to inhibit the hERG channel, the cloned counterpart of the […] delayed rectifier potassium current (IKr), HEK293 cells stably expressing the hERG channel were used in whole-cell patch clamp electrophysiology studies at ambient temperature (26.5-28.5° C.). The methodology for stable transfection of this channel in HEK293 cells can be found elsewhere (Zhou et al 1998, Biophysical Journal, 74, pp 230-241). The solutions used for experimentation were standard extracellular solution of the following composition (mM); NaCl, 137; KCl, 4; CaCl2, 1.8; MgCl2, 1; Glucose, 10; HEPES, 10; pH 7.4±0.05 with NaOH/HCl; and standard intracellular solution of the following composition (mM); KCl 130; MgCl2, 1; HEPES, 10; EGTA, 5; MgATP, 5; pH 7.2±0.05 with KOH. The voltage protocol applied was designed to activate the hERG channel and allow the measurement of drug block of the channel and is as follows. First the membrane potential was stepped from a holding potential of −80 mV to +30 mV for 1s. This was followed by a descending voltage ramp at a rate of 0.5 mV/ms back to holding potential of −80 mV and the peak outward current observed during the repolarizing ramp was measured. This protocol was evoked repeatedly every 4 seconds (0.25 Hz). […]

T1 sequence (Q9Y5N1 whole entry): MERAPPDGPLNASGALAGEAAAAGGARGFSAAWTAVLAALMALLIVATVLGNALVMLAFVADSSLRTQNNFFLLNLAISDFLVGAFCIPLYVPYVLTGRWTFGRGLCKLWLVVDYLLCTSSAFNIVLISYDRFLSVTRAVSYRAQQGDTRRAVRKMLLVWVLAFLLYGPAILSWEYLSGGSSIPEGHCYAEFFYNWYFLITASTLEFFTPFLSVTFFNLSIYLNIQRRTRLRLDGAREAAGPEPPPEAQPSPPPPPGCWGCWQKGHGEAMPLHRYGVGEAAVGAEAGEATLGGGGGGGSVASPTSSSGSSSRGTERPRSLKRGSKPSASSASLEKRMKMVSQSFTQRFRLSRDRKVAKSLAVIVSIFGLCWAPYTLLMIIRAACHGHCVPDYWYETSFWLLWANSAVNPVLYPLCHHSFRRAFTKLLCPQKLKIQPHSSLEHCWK
T2 sequence (Q12809 whole entry): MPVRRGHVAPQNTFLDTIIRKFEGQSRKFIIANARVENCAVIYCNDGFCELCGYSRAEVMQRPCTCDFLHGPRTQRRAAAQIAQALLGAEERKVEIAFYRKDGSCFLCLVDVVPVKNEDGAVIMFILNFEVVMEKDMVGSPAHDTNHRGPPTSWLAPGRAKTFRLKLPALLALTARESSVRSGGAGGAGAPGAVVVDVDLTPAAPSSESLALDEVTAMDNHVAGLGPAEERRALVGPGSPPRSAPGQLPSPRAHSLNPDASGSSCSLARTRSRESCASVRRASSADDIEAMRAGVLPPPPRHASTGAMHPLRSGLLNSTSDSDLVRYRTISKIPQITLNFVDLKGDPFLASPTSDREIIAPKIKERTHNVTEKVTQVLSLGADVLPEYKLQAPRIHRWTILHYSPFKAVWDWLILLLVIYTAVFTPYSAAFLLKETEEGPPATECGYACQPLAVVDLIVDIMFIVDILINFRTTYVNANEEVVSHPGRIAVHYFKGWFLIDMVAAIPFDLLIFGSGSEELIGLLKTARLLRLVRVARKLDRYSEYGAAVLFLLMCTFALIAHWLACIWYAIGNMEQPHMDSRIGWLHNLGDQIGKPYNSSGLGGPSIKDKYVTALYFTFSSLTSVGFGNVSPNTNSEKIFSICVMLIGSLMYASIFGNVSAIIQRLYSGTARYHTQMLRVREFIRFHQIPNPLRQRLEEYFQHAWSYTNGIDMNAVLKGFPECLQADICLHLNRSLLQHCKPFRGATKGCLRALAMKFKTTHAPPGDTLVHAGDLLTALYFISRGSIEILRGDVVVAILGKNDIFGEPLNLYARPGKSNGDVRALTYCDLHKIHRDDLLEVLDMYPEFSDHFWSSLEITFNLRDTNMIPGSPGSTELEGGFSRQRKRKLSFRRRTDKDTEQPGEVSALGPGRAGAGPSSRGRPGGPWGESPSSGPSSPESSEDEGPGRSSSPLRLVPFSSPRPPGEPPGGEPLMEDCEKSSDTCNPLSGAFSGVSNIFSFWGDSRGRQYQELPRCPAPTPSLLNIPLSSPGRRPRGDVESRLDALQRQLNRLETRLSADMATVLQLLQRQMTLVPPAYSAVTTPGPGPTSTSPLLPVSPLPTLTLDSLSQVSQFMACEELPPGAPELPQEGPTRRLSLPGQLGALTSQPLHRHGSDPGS

Ki ([1]; HEK-293 CRE β-lactamase cells, antagonism of 1 nM imetit, 10 μM forskolin, Ki calculated from IC50 by the Cheng-Prussoff equation)	Structure (SMILES)	IC50 (hERG channel)	EC50 [1]
2.6 nM	CC(C)N1CCC(Oc2ccc3c(n2)CCN(c2ccc(C(N)=O)cn2)C3)CC1 [Example 1, 6-[2-(1-Isopropyl-piperidin-4-yloxy)-7,8-dihydro-5H-[1,6]naphthyridin-6-yl]-nicotinamide]	22200 nM	
	N=C(N)SCCc1cnc[nH]1 [imetit, reference compound]		0.35 nM
